One data set deals with DM EGFR. In words: In vitro TR-FRET assay, DM EGFR. The data set is classed as binding.
For data set [1], the target named is T1, WT EGFR (Homo sapiens, UniProt P00533). In words: In vitro TR-FRET assay, WT EGFR. It is filed as binding. As to conditions: for WT EGFR pIC50: Table S1, TR FRET, n=1, 2 technical replicates.
Data set [2] deals with T1, WT EGFR. In words: Protein mass spectrometry after incubation of compound with EGFR. It is filed as binding. As to conditions: for adduct formation with EGFR / release of 5FU from EGFR adduct: 15 μM compound, 4 μM EGFR, 4 hr; for adduct formation with EGFR: ambient temperature; for release of 5FU from EGFR adduct: protein mass spectrometry; for mass increase of adduct after loss of 5FU / mass increase of initial (intact) adduct: relative to apo protein. As to the method:
Compounds were suspended in 10 mM in 100% DMSO and were added to 4 μM of EGFR to achieve the final compound concentration of 15 μM in 1% DMSO, in 25 mM Tris pH 8, 150 mM NaCl, 5% Glycerol before incubating at an ambient temperature for 4 hr time prior to analysis.
Following incubation, intact protein masses were determined using an Agilent 6530 Accurate Mass dual AJS/ESI Q-TOF instrument coupled to an Agilent 1260 Infinity II LC system. 1 μL of purified protein (∼1 mg/mL) was injected onto an MS Pac DS-10 Desalter cartridge ((Thermo Fisher Scientific), PN: 089170, 2.1 × 10 mm) for desalting and reversed phase separation at 70 °C. The mobile phase was 0.1% (v/v) formic acid in LC-MS grade water (A) and LC-MS grade acetonitrile (B) with separation performed over 7.5 min. […] Proteins were detected in positive ion mode using electrospray ionization with a nebulizer pressure of 45 psig, a drying gas flow of 5 L/min, and a source gas temperature of 325 °C. A sheath gas temperature of 400 °C, a gas flow of 11 L/min, a capillary voltage of 3500 V, and a nozzle voltage of 2000 V were also used. Mass spectra were acquired using MassHunter Acquisition software (version B.08.00) over a mass range of 100–3000 m/z at a rate of 1 spectra/s and 1000 ms/spectrum in the standard mass range (3200 m/z) at 2 GHz. The instrument had been calibrated over the selected mass range prior to analysis.

The nature of data set [3]: Compound media stability (LC-MS). The following applies: DMEM + 10% FCS, 1.0 μM, 25 h. It is filed as physicochemical. As for the experimental part: Compound 53 (0.760 mg, 1.51 μmol) was dissolved in DMSO […] and then added to DMEM (Sigma-Aldrich 5796) + 10% FCS media (1.50 mL) such that the final concentration was 1.0 μM. Liquid chromatography-mass spectrometry (LC-MS) analysis was carried out at t = 0, 1, 3, and 25 h.

Data set [4] relates to pEGFR (Tyr1068) in A431 cells. In words: Cellular pEGFR inhibition by HTRF (A431). It is filed as cell-based. The following applies: for pEGFR pIC50: Figure 5a; for IC50: Homo sapiens, A-431, Figure 5a, read-out: pEGFR pIC50 (converted). As to the method: Cells were plated at 20 000 cells per well in 96-well plates and placed at 37 °C with 5% CO2. […] Compound and media were removed from the cells, and then 50 μL of HTRF lysis buffer was added (lysis buffer was diluted from 4× stock to 1× in deionized (DI) water, with 1% blocking agent also added). Cells were lysed on a plate shaker (2000 rpm) for 30 min at room temperature. pEGFR expression was monitored using the Cisbio Phospho-EGFR (Tyr1068) cellular kit (64EG1PEH). Total EGFR expression was monitored using the Cisbio Total EGFR cellular kit (64NG1PEH) as per the manufacturer’s instructions. […] Results were calculated as the ratio of pEGFR/total EGFR and then the percentage of 0 μM control.
On the technique in general: In TR-FRET formats the signal depends on donor and acceptor labels being close together.

Data set [5] can be described thus: 19F NMR 5FU release study with N-acetyl-L-cysteine methyl ester. The following applies: reaction with N-acetyl cysteine. It is filed as physicochemical. As for the experimental part: Reaction of the model systems with N-acetyl-L-cysteine methyl ester was assessed by ^19F NMR.
Acrylate-5FU conjugate (0.125 M) in d^6-DMSO (0.25 mL) was prepared in an NMR tube. N-Acetyl cysteine methyl ester (1.9 mg, 0.011 mmol) or glutathione (3.4 mg, 0.011 mmol) in d^6-DMSO was prepared. The cysteine/glutathione solution was added to the NMR tube, and the tube was inverted several times. The ^19F NMR was taken immediately for t = 0 measurement. Further measurements were taken at t = 30 min and t = 60 min.

Data set [6] relates to EGFR phosphorylation in A431 cells. In words: pEGFR inhibition by Western blot in A431. It is filed as cell-based. As to conditions: 4 h. As for the experimental part: Appropriately treated cells were lysed in Phosphosafe extraction buffer combined with cOmplete Protease Inhibitor Cocktail (Merck) prepared as per the manufacturer’s instructions.
Samples were prepared in Eppendorf vials by diluting them to the required concentrations with phosphate-buffered saline (PBS), and the appropriate amount of 4X XT sample buffer was added. This solution was vortexed, centrifuged, then placed at 98 °C for 5 min, and then centrifuged to remove the residue. Migration was performed using a 4–20% Criterion TGX Precast Midi Protein Gel, 18 well, 30 μL (Cat. No. 5671094) placed in a Criterion running tank (Cat. No. 1656001) and also using PowerPac HC high-current power supply (Bio-Rad) electrodes. Nitrocellulose membrane used was an Amersham Protran Premium 0.45 Nitrocellulose membrane (Cat. No. 15269794) and Ponceau S Stain (Sigma-Aldrich Cat. No. p7170).
Primary antibodies raised to EGFR (CST 4267) or pEGFR (CST 3777) were diluted (1:1000) in 5% BSA w/v. Loading control antibodies were prepared in 5% milk w/v with 1 × TBS/T (0.1 v/v) solution at a determined optimum concentration.
Secondary HRP-conjugated antibodies were diluted in 5% milk with w/v in 1 × TBS/T (0.1 v/v) solution at a determined optimum concentration.
Proteins were detected using the Clarity ECL Western blotting substrate (Bio-Rad).
Background: In western blotting, separated proteins are transferred to a membrane and probed.

A further data set relates to A431 cells. In words: Growth inhibition in adherent cell lines (SRB, 72 h). It is filed as cell-based. The following applies: for GI50: Homo sapiens, A-431, 72 h. As for the experimental part:
On day 1, the compounds were diluted to the required concentration in DMEM +10% FBS media, ensuring that the final DMSO concentration was 0.1% once added to cells. […] Cells were then fixed by adding 50% (wt/vol) TCA to each well of the plate and left at 4 °C for 1 h. The plates were then washed thoroughly with water, 100 μL of 0.4% SRB solution was added to the wells, and left at room temperature for 30 min. The plates were rinsed with 1% AcOH and then left to air-dry in a drying cabinet for 1 h. […] The absorbance was read at 570 nm using a FluoStar Omega plate reader.

Setting [7] is: Table S1, TR FRET, n=1, 2 technical replicates.
Setting [8] is: WT EGFR, TR-FRET, n > 2, Figure 5a and text.
The mark [9] stands for this setting: A431 cell viability, 72 h, Figure 5c.
[10] abbreviates: A431 cell viability, 72 h, Figure 6b, single agents and equimolar combination.

“Also recorded” adds a separate entry of the source. Where two headings read alike, the source gives them in different places.

For the molecule “2-Fluoro-4-methoxy-5-((4-(1-methyl-1H-indol-3-yl)pyrimidin-2-yl)amino)phenyl (E)-3-(5-fluoro-2,4-dioxo-3,4-dihydropyrimidin-1(2H)-yl)acrylate [compound 35]”, the “DM EGFR pIC50” value with DM EGFR (setting [7]) turned out to be 5.5. For the same molecule, on WT EGFR [1], the “WT EGFR pIC50” value is given as less than 4.0. In addition, at WT EGFR [2], the “adduct formation with EGFR” value is given as “evidence of adduct formation” and the “release of 5FU from EGFR adduct” value was “without evidence of the release of 5FU”.
As to “3-((4-(1-Methyl-1H-indol-3-yl)pyrimidin-2-yl)amino)-4-nitrophenyl (E)-3-(5-Fluoro-2,4-dioxo-3,4-dihydropyrimidin-1(2H)-yl)acrylate [compound 39]”, the “DM EGFR pIC50” value in the data set with DM EGFR (setting [7]) is 3.7. In addition, the “WT EGFR pIC50” value on WT EGFR [1] was less than 4.0. Also, on WT EGFR [2], the “adduct formation with EGFR” value is given as “evidence of adduct formation” and the “release of 5FU from EGFR adduct” value is reported as “without evidence of the release of 5FU”.
A word on the pGI50: it is −log10 of the GI50, conventionally taken in molar units. A high value points to a low GI50. In the case of “4-((3-Chloro-4-fluorophenyl)amino)-7-methoxyquinazolin-6-yl (E)-3-(5-fluoro-2,4-dioxo-3,4-dihydropyrimidin-1(2H)-yl)acrylate [compound 53]”, in data set [3], the “hydrolysis in cell media” value was “some hydrolysis did occur” and the “release of 5FU in cell media” value is reported as “no observation of the release of 5FU”. The “pEGFR pIC50” value in data set [4] came out at 7.8. In addition, in data set [5], the “time to complete release of 5FU” value turned out to be 1 h. For the same molecule, in data set [6], the “inhibition of EGFR phosphorylation at 1 μM” value is “not at 1 μM” and the “inhibition of EGFR phosphorylation at 10 μM” value is listed as “marked inhibition”. Further, the “EGFR pIC50” value on WT EGFR [1] (setting [8]) amounted to 6.8. Further, at WT EGFR [2], the “adduct formation with EGFR” value is on record as “two new major adducts”, the “release of 5FU from EGFR adduct” value is on record as “loss of 5FU from the complex”, the “mass increase of adduct after loss of 5FU” value is reported as 372 Da and the “mass increase of initial (intact) adduct” value was 502 Da. Also, in the data set with A431 cells (setting [9]), the negative-log GI50 (pGI50) stood at 5.3.
For orientation: GI50 means the concentration giving 50% growth inhibition. Take `O=c1[nH]cc(F)c(=O)[nH]1` [5-FU, 5-fluorouracil, reference compound]: the GI50 was 631 nM with A431 cells (A431 cell viability, 72 h, Figure 6a, single agents and equimolar combination); 631 nM in the data set on A431 cells (setting [10]).
Turning to `COc1cc2ncnc(Nc3ccc(F)c(Cl)c3)c2cc1NC(=O)/C=C/CN1CCCCC1` [compound 2, dacomitinib, reference compound], in data set [4], the IC50 was 10 nM. Besides, the concentration for 50% growth inhibition (GI50) in the data set with A431 cells (setting [9]) is 79.4 nM.
Take `COc1cc2ncnc(Nc3ccc(F)c(Cl)c3)c2cc1OC(=O)/C=C/CN1CCCCC1` [compound 56, 4-((3-Chloro-4-fluorophenyl)amino)-7-methoxyquinazolin-6-yl (E)-4-(piperidin-1-yl)but-2-enoate]: the IC50 in data set [4] is 5010 nM. For the same molecule, the “inhibition of EGFR phosphorylation at 1 μM” value in data set [6] was “some inhibition”. Also, at WT EGFR [1] (supplementary CSV column), the “EGFR pIC50” value is given as 8.1 +/- 0.82. In addition, the concentration for 50% growth inhibition (GI50) with A431 cells (setting [9]) was greater than 10000 nM; in the data set on A431 cells (setting [10]), 10000 nM.
“(E)-1-(3-(3-((4-((3-Chloro-4-fluorophenyl)amino)-7-methoxyquinazolin-6-yl)oxy)azetidin-1-yl)-3-oxoprop-1-en-1-yl)-5-fluoropyrimidine-2,4(1H,3H)-dione [compound 48]”: the “DM EGFR pIC50” value in the data set on DM EGFR (setting [7]) was 6.7. Moreover, the “WT EGFR pIC50” value at WT EGFR [1] is 6.6. On WT EGFR [2], the “adduct formation with EGFR” value was “covalent adduct formation” and the “release of 5FU from EGFR adduct” value is reported as “without evidence of the release of 5FU”.
For “(E)-1-(3-(4-((4-((3-Chloro-4-fluorophenyl)amino)-7-methoxyquinazolin-6-yl)oxy)piperidin-1-yl)-3-oxoprop-1-en-1-yl)-5-fluoropyrimidine-2,4(1H,3H)-dione [compound 51]”, on WT EGFR [1], the “WT EGFR pIC50” value was 6.6.
In the case of “(E)-N-(3-((5-Chloro-4-(pyrazolo[1,5-a]pyridin-3-yl)pyrimidin-2-yl)amino)-4-methoxyphenyl)-3-(5-fluoro-2,4-dioxo-3,4-dihydropyrimidin-1(2H)-yl)acrylamide [compound 30]”, in the data set with DM EGFR, the “DM EGFR pIC50” value came out at 6.8. For the same molecule, the “WT EGFR pIC50” value on WT EGFR [1] worked out at 5.7. In addition, at WT EGFR [2], the “adduct formation with EGFR” value was “an adduct formed”, the “release of 5FU from EGFR adduct” value was “without 5FU release; also recorded: no evidence of the release of 5FU” and the “mass increase of initial (intact) adduct” value is listed as 548 Da.
As for “(E)-N-(4-((3-Chloro-4-fluorophenyl)amino)-7-methoxyquinazolin-6-yl)-3-(5-fluoro-2,4-dioxo-3,4-dihydropyrimidin-1(2H)-yl)acrylamide [compound 57]”, the “pEGFR pIC50” value in data set [4] amounted to 5.6. The “inhibition of EGFR phosphorylation at 10 μM” value in data set [6] is given as “little inhibition”. For the same molecule, the “EGFR pIC50” value at WT EGFR [1] (setting [8]) came out at 7.3. At WT EGFR [2], the “adduct formation with EGFR” value is “clear adduct”, the “release of 5FU from EGFR adduct” value is recorded as “negligible release of 5FU”, the “mass increase of adduct after loss of 5FU” value is 371 Da and the “mass increase of initial (intact) adduct” value was found to be 501 Da. In addition, the antiproliferative effect entry in the data set with A431 cells (A431, 72 h growth inhibition) was “no antiproliferative effects”. In addition, the pGI50 in the data set on A431 cells (supplementary CSV column) is less than 5.0.
“(R, E)-1-(3-(3-((4-((3-Chloro-4-fluorophenyl)amino)-7-methoxyquinazolin-6-yl)oxy)pyrrolidin-1-yl)-3-oxoprop-1-en-1-yl)-5-fluoropyrimidine-2,4(1H,3H)-dione [compound 49]”: in the data set with DM EGFR (setting [7]), the “DM EGFR pIC50” value worked out at 6.4. In addition, the “WT EGFR pIC50” value on WT EGFR [1] came to 5.6.
Regarding “(S, E)-1-(3-(3-((4-((3-Chloro-4-fluorophenyl)amino)-7-methoxyquinazolin-6-yl)oxy)pyrrolidin-1-yl)-3-oxoprop-1-en-1-yl)-5-fluoropyrimidine-2,4(1H,3H)-dione [compound 50]”, the “DM EGFR pIC50” value with DM EGFR (setting [7]) was found to be 6.6. Also, the “WT EGFR pIC50” value at WT EGFR [1] stood at 5.9.

(Values after publication PMC10510387, “Targeting Cytotoxic Agents through EGFR-Mediated Covalent Binding and Release” (Journal of Medicinal Chemistry, 2023).)
